What was measured:
p38 MAPKα = p38 MAPKα (Homo sapiens (Human), UniProt Q16539); assay: p38 MAPKα enzyme inhibition (FRET, Z-LYTE); type: biochemical
cSrc = cSrc (Homo sapiens (Human), UniProt P12931); assay: c-Src enzyme inhibition (FRET, Z-LYTE); type: biochemical
Method in brief: (§1)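 Z-LYTE FRET kinase assay: enzyme (3000 or 2000 ng/mL stock, respectively) preincubated 2 h at RT with compound (4–0.004 μg/mL stocks), then FRET peptide plus ATP (800 μM stock for c-Src, 60 μM for Syk) added for 1 h. Protease development 1 h; phosphorylation from coumarin/fluorescein emission ratio.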

Syk = Syk (Homo sapiens (Human), UniProt P43405); assay: Syk enzyme inhibition (FRET, Z-LYTE); type: biochemical
Method in brief: as §1

GSK3α = GSK3α (Homo sapiens (Human), UniProt P49840); assay: GSK 3α enzyme inhibition (FRET, Z-LYTE); type: biochemical
Chain of GSK3α (P49840 whole entry): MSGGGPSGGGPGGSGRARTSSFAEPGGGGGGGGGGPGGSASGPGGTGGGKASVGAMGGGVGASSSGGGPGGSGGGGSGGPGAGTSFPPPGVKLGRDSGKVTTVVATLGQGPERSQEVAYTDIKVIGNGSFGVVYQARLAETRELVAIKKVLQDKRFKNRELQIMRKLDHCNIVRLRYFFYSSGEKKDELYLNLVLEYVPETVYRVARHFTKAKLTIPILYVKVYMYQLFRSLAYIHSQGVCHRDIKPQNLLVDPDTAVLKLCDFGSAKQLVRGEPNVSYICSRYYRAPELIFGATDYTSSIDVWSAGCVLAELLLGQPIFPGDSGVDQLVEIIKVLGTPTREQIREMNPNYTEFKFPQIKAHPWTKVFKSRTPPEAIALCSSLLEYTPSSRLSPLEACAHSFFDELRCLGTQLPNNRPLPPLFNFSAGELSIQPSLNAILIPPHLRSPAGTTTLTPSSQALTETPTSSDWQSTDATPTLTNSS
Method in brief: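 GSK3α (500 ng/mL stock) was preincubated 2 hr at RT with compound (4 to 0.004 μg/mL stocks), then FRET peptide (8 μM stock) and ATP (40 μM stock) added for 1 hr. Protease development for 1 hr cleaved unphosphorylated peptide; coumarin/fluorescein emission ratio reported phosphorylation.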

[1] = test system: LPS-induced TNFα release in d-U937 cells; assay: LPS-induced TNFα release in d-U937 cells; type: cell-based; settings: Homo sapiens, dU937, relative to 10 μg/mL BIRB796, read-out: LPS Induced Release of Cytokine in d-937 Cells TNFα REC50
Method in brief: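 Read-out: TNFα and IL-8 released into supernatant, sandwich ELISA, expressed as inhibition versus vehicle at each dose and fitted to give REC50. Cells were PMA-differentiated U937 (100 ng/mL, 48–72 hr), compound-exposed 2 hr before a 4 hr LPS stimulus (0.1 μg/mL).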

[2] = test system: LPS-induced IL-8 release in d-U937 cells; assay: LPS-induced IL-8 release in d-U937 cells; type: cell-based; settings: Homo sapiens, dU937, read-out: LPS Induced Release of Cytokine in d-937 Cells IL-8 IC50
Method in brief: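 First, U937 monocytes undergo PMA treatment (100 ng/mL) for 48 to 72 hr to become macrophage-type. Next, compound at final concentrations is added for 2 hr, followed by LPS at 0.1 μg/mL for 4 hr. Finally, cytokines in the supernatant are quantified by ELISA against vehicle-treated cells.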

[3] = test system: Poly I:C-induced ICAM-1 expression in BEAS2B cells; assay: Poly I:C-induced ICAM-1 expression in BEAS2B cells; type: cell-based; settings: Homo sapiens, BEAS-2B, read-out: Poly IC induced ICAM1 in BEAS2B IC50
Method in brief: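 BEAS2B human bronchial epithelial cells pre-incubated with compound for 2 hr, then transfected with 1 μg/mL poly I:C plus Oligofectamine. At 18 hr, surface ICAM-1 measured by cell-based ELISA (HRP, OD450–655). Signal corrected for cell number by crystal violet OD595.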

d-U937 cells = assay: Cell viability: MTT assay; type: cell-based, human; settings: 1 μg/mL
Method in brief: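 Differentiated U937 cells were exposed to compound at 1 or 10 μg/mL either 4 h in 5% FCS RPMI1640 or 24 h in 10% FCS RPMI1640, then given MTT for 1 h, DMSO-solubilised and read at 550 nm. Percent viability loss versus 0.5% DMSO vehicle; apparent gains appear negative.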

Chain of p38 MAPKα (Q16539 whole entry): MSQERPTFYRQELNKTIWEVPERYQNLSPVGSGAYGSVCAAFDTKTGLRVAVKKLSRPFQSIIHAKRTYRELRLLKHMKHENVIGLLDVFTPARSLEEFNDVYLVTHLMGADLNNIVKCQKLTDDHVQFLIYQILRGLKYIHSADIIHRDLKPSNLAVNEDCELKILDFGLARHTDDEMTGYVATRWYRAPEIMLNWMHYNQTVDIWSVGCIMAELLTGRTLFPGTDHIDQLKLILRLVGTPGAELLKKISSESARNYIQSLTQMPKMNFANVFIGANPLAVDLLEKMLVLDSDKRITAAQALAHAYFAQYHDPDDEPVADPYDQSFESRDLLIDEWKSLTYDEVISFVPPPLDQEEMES
Chain of cSrc (P12931 whole entry, looked up): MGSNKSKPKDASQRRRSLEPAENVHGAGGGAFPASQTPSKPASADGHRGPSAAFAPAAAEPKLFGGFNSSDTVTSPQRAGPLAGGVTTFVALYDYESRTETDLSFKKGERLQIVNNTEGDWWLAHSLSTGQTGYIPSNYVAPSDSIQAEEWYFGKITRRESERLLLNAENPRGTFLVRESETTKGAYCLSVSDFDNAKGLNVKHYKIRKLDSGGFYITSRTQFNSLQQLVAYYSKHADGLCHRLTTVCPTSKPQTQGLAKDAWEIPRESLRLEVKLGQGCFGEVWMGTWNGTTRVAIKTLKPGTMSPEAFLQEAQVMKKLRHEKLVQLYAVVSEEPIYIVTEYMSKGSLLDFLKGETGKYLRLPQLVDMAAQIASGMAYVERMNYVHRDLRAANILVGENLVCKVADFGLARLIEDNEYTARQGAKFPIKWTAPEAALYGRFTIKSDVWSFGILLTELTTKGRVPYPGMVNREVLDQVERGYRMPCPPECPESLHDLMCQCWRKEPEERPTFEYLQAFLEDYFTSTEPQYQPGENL

SMILES | IC50 (p38 MAPKα) | IC50 (cSrc) | IC50 (Syk) | IC50 (GSK3α) | EC50 [1] | IC50 [2] | IC50 [3] | MTT Assay Cell viability at time point in d-U937 cells 4 h (d-U937 cells) | MTT Assay Cell viability at time point in d-U937 cells 24 h (d-U937 cells)
CC(C)c1cc(NC(=O)Nc2ccc(Oc3ccnc(Nc4ccc5[nH]ncc5c4)n3)c3ccccc23)n(-c2cccc(OCCN3CCOCC3)c2)n1 [Example 53, 1-(4-((2-((1H-indazol-5-yl)amino)pyrimidin-4-yl)oxy)naphthalen-1-yl)-3-(3-isopropyl-1-(3-(2-morpholinoethoxy)phenyl)-1H-pyrazol-5-yl)urea] | 8 nM | 4 nM | 3 nM | 11300 nM | 49.1 nM | 173 nM | 38.5 nM | −ve (−ve and +ve indicate that the value is below and above respectively, the no significant effect threshold, defined as 30% inhibition at 1 μg/mL at the time point indicated.) | −ve (−ve and +ve indicate that the value is below and above respectively, the no significant effect threshold, defined as 30% inhibition at 1 μg/mL at the time point indicated.)
Cc1cc(Nc2nccc(Oc3ccc(NC(=O)Nc4cc(C(C)C)nn4-c4cccc(OCCN5CCOCC5)c4)c4ccccc34)n2)cc2cn[nH]c12 [Example 55, 1-(3-isopropyl-1-(3-(2-morpholinoethoxy)phenyl)-1H-pyrazol-5-yl)-3-(4-((2-((7-methyl-1H-indazol-5-yl)amino)pyrimidin-4-yl)oxy)naphthalen-1-yl)urea] | 7 nM | < 1 nM | < 1 nM | > 13500 nM | 3.9 nM | 43.4 nM | 50.8 nM | −ve (−ve and +ve indicate that the value is below and above respectively, the no significant effect threshold, defined as 30% inhibition at 1 μg/mL at the time point indicated.) | −ve (−ve and +ve indicate that the value is below and above respectively, the no significant effect threshold, defined as 30% inhibition at 1 μg/mL at the time point indicated.)
CC(C)(C)c1cc(NC(=O)Nc2ccc(Oc3ccnc(Nc4ccc5[nH]nnc5c4)n3)c3ccccc23)n(-c2ccc(OCCN3CCOCC3)cc2)n1 [Example 81, 1-(4-((2-((1H-benzo[d][1,2,3]triazol-5-yl)amino)pyrimidin-4-yl)oxy)naphthalen-1-yl)-3-(3-(tert-butyl)-1-(4-(2-morpholinoethoxy)phenyl)-1H-pyrazol-5-yl)urea] | 66 nM | 5 nM | 14 nM | 641 nM | 1.4 nM | 1.6 nM | 10 nM | −ve (−ve and +ve indicate that the value is below and above respectively, the no significant effect threshold, defined as 30% inhibition at 1 μg/mL at the time point indicated.) | −ve (−ve and +ve indicate that the value is below and above respectively, the no significant effect threshold, defined as 30% inhibition at 1 μg/mL at the time point indicated.)
COc1ccc(-n2nc(C(C)(C)C)cc2NC(=O)Nc2ccc(Oc3ccnc(Nc4ccc5c(cnn5CCN5CCOCC5)c4)n3)c3ccccc23)cc1 [Example 43, 1-(3-(tert-butyl)-1-(4-methoxyphenyl)-1H-pyrazol-5-yl)-3-(4-((2-((1-(2-morpholinoethyl)-1H-indazol-5-yl)amino)pyrimidin-4-yl)oxy)naphthalen-1-yl)urea] | 15 nM | 2 nM | 21 nM | 485 nM | 1.3 nM | 1.8 nM | 2.4 nM | −ve (−ve and +ve indicate that the value is below and above respectively, the no significant effect threshold, defined as 30% inhibition at 1 μg/mL at the time point indicated.) | −ve (−ve and +ve indicate that the value is below and above respectively, the no significant effect threshold, defined as 30% inhibition at 1 μg/mL at the time point indicated.)

The next lines start with results.

IC50 (p38 MAPKα) | IC50 (cSrc) | IC50 (Syk) | IC50 (GSK3α) | EC50 [1] | IC50 [2] | SMILES | IC50 [3] | MTT Assay Cell viability at time point in d-U937 cells 4 h (d-U937 cells) | MTT Assay Cell viability at time point in d-U937 cells 24 h (d-U937 cells)
80 nM | 10 nM | 24 nM | > 1600 nM | 6.2 nM | 17.2 nM | CC(C)(C)c1cc(NC(=O)Nc2ccc(Oc3ccnc(Nc4ccc5[nH]ncc5c4)n3)c3ccccc23)n(-c2ccc(O)cc2)n1 [Example 7, 1-(4-((2-((1H-Indazol-5-yl)amino)pyrimidin-4-yl)oxy)naphthalen-1-yl)-3-(3-(tert-butyl)-1-(4-hydroxyphenyl)-1H-pyrazol-5-yl)urea] | 16.1 nM | −ve (−ve and +ve indicate that the value is below and above respectively, the no significant effect threshold, defined as 30% inhibition at 1 μg/mL at the time point indicated.) | −ve (−ve and +ve indicate that the value is below and above respectively, the no significant effect threshold, defined as 30% inhibition at 1 μg/mL at the time point indicated.)
32 nM | < 1 nM | 5 nM | 472 nM | 0.9 nM | 3.3 nM | COc1ccc(-n2nc(C(C)(C)C)cc2NC(=O)Nc2ccc(Oc3ccnc(Nc4ccc5[nH]nc(C(=O)N(C)C)c5c4)n3)c3ccccc23)cc1 [Example 47, 5-((4-((4-(3-(3-(tert-butyl)-1-(4-methoxyphenyl)-1H-pyrazol-5-yl)ureido)naphthalen-1-yl)oxy)pyrimidin-2-yl)amino)-N,N-dimethyl-1H-indazole-3-carboxamide] | 0.5 nM | −ve (−ve and +ve indicate that the value is below and above respectively, the no significant effect threshold, defined as 30% inhibition at 1 μg/mL at the time point indicated.) | −ve (−ve and +ve indicate that the value is below and above respectively, the no significant effect threshold, defined as 30% inhibition at 1 μg/mL at the time point indicated.)
13 nM | 2 nM | 3 nM | 2290 nM | 1.6 nM | 1.7 nM | Cc1n[nH]c2ccc(Nc3nccc(Oc4ccc(NC(=O)Nc5cc(C(C)(C)C)nn5-c5ccc(OCCN6CCOCC6)cc5)c5ccccc45)n3)cc12 [Example 72] | 165 nM | −ve (−ve and +ve indicate that the value is below and above respectively, the no significant effect threshold, defined as 30% inhibition at 1 μg/mL at the time point indicated.) | −ve (−ve and +ve indicate that the value is below and above respectively, the no significant effect threshold, defined as 30% inhibition at 1 μg/mL at the time point indicated.)
369 nM | 23 nM | 671 nM | 5140 nM | 3.8 nM | 3.3 nM | Cc1ccc(-n2nc(C(C)(C)C)cc2NC(=O)Nc2ccc(Oc3ccnc(Nc4ccc5c(c4)OCO5)n3)c3ccccc23)cc1 [Example 33, 1-(4-((2-(benzo[d][1,3]dioxol-5-ylamino)pyrimidin-4-yl)oxy)naphthalen-1-yl)-3-(3-(tert-butyl)-1-(p-tolyl)-1H-pyrazol-5-yl)urea] | 2.7 nM | −ve (−ve and +ve indicate that the value is below and above respectively, the no significant effect threshold, defined as 30% inhibition at 1 μg/mL at the time point indicated.) | −ve (−ve and +ve indicate that the value is below and above respectively, the no significant effect threshold, defined as 30% inhibition at 1 μg/mL at the time point indicated.)
332 nM | 16 nM | 142 nM | > 1600 nM | 2.5 nM | 5.9 nM | CC(C)(C)c1cc(NC(=O)Nc2ccc(Oc3ccnc(Nc4ccc5[nH]ccc5c4)n3)c3ccccc23)n(-c2ccc(O)cc2)n1 [Example 37, 1-(4-((2-((1H-indol-5-yl)amino)pyrimidin-4-yl)oxy)naphthalen-1-yl)-3-(3-(tert-butyl)-1-(4-hydroxyphenyl)-1H-pyrazol-5-yl)urea] | 3.7 nM | −ve (−ve and +ve indicate that the value is below and above respectively, the no significant effect threshold, defined as 30% inhibition at 1 μg/mL at the time point indicated.) | −ve (−ve and +ve indicate that the value is below and above respectively, the no significant effect threshold, defined as 30% inhibition at 1 μg/mL at the time point indicated.)
